Laboratory results taken from patent US20040242545A1, “Remedy for glaucoma comprising as the active ingredient compound having p13 kinase inhibitory effect” (Santen Phamaceutical Co., Ltd., priority 2001, published 2004).

Experiments:
Assay type in all cases: in vivo
intraocular pressure [1] = assay: Intraocular pressure measurement after administration into rabbit anterior chamber; conditions: for Difference of intraocular pressure, 2 hours after administration / Difference of intraocular pressure, 4 hours after administration / Difference of intraocular pressure, 6 hours after administration: vs just before administration; for Difference of intraocular pressure, 2 hours before administration: pre-dose value vs just before administration; for Difference of intraocular pressure, just before administration: reference time point; for Maximum breadth of the intraocular pressure reduction: on 6 hours after administration
Method: In order to examine the influence of the compound having a PI3 kinase blocking action upon the intraocular pressure reduction, measurement of intraocular pressure was conducted using an applanation tonometer or a pneumatic applanation tonometer. LY294002 and wortmannin were provided as test compounds. The former compound was dissolved in methanol to give the concentration of 10^-1 M, and thereto was added 2-hydroxypropyl-β-cyclodextrin as a solubilizer. This solution was diluted in physiological saline to give a LY294002 solution having the concentration of 10^-3 M. The amount of used 2-hydroxypropyl-β-cyclodextrin was determined to make the final concentration thereof to be 4×10^-3 M. Wortmannin was dissolved in dimethylsulfoxide to give the concentration of 10^-1 M for use in the test of administration into anterior chamber, and the obtained solution was diluted in physiological saline to give solutions having the concentration of 10^-4 M and 10^-5 M. Furthermore, dissolution of the compound was conducted in dimethylsulfoxide to give the concentration of 10^-1 M for use in the instillation test, and the obtained solution was diluted in physiological saline to give a 0.04284% (10^-3 M) solution in a suspension state. Rabbit intraocular pressure measurement: An electric current source of a tonometer (pneutonometer model 30 classic) was turned on, and calibration was conducted. […] injection needle was attached to a microsyringe, and a test compound solution or a vehicle was aspirated therein. A rabbit positioner made of aluminum for use in administration into anterior chamber was placed on a table made of aluminum. Further, a rabbit positioner made of wood for use in measurement of intraocular pressure was separately placed on the table made of aluminum. Administration into rabbit anterior chamber: A rabbit was placed on a rabbit positioner made of aluminum for use in administration into anterior chamber, and 0.4% oxybuprocaine hydrochloride was instilled to both eyes with one drop. After fixing an eye lid retractor, the bulbar conjunctiva was held with tweezers, and the needle point was passed from corneallimbus into corneal stroma in the […] direction with the depth of about 2 to 3 mm. Thereafter, the needlepoint was pierced into the anterior chamber, where the test compound solution was infused in an amount of 20 μL. […] Following the completion of the administration operation, the rabbit was brought back to the cage. The rabbit was brought out from the cage on two hours before the administration, just before the administration, and on 2, 4 and 6 hours after the administration, and was placed on the positioner made of wood. Oxybuprocaine hydrochloride at the concentration of 0.4% was instilled to both eyes, and intraocular pressure was measured after fixing the eye lid retractor. The vehicle was administered in a similar manner. Using the intraocular pressure just before the administration as a reference, results are shown by difference (mmHg) between the intraocular pressure of the reference and the intraocular pressure at each time point of the measurement. As obvious from Table 1, the intraocular pressure reduction was observed after the administration of LY294002. Maximum breadth of the intraocular pressure reduction (maximum value of the difference between values of the group administered with the vehicle and the group administered with the test compound) was observed on 6 hours after the administration of 10^-3 M LY294002, with the value of 3.7 mmHg.

intraocular pressure [2] = assay: Intraocular pressure measurement after instillation to monkey
Method: (§1) In order to examine the influence of the compound having a PI3 kinase blocking action upon the intraocular pressure reduction, measurement of intraocular pressure was conducted using an applanation tonometer or a pneumatic applanation tonometer. Wortmannin was dissolved in dimethylsulfoxide to give the concentration of 10^−1 M for use in the test of administration into anterior chamber, and the obtained solution was diluted in physiological saline to give solutions having the concentration of 10^−4 M and 10^−5 M. Furthermore, dissolution of the compound was conducted in dimethylsulfoxide to give the concentration of 10^−1 M for use in the instillation test, and the obtained solution was diluted in physiological saline to give a 0.04284% (10^−3 M) solution in a suspension state. Monkey intraocular pressure measurement: Measurement of intraocular pressure was conducted using a pneumatic applanation tonometer (Alcon Japan. Ltd.). Test of instillation to monkey: The test compound solution in an amount of 20 μL was instilled to the eye to be administered. The measurement time of the intraocular pressure was on one hour before the administration, just before the administration, and on 2, 4 and 6 hours after the administration. Using the intraocular pressure just before the administration as a reference, results are shown by difference (mmHg) between the intraocular pressure of the reference and the intraocular pressure at each time point of the measurement. As obvious from Table 1, the intraocular pressure reduction was observed after the administration of LY294002. Maximum breadth of the intraocular pressure reduction (maximum value of the difference between values of the group administered with the vehicle and the group administered with the test compound) was observed on 6 hours after the administration of 10^−3 M LY294002, with the value of 3.7 mmHg.

intraocular pressure [3] = assay: Intraocular pressure measurement after administration into monkey anterior chamber
Method: as §1, with “Ltd.). Administration into monkey anterior chamber:” for “Ltd.). Test of instillation to monkey:”, “The administration was carried out” for “The test compound solution”, “in accordance with the process for administering” for “in an amount of 20 μL was instilled”, “the rabbit.” for “the eye to be administered.”, “The dosage amount was 10 μL, and the” for “The”

[4] = 10^−3 M LY294002, 20 μL, mean of 6
[5] = instillation, 0.04284% (10^−3 M) wortmannin suspension, 20 μL, vs just before administration, mean of 5
[6] = 10^−4 M wortmannin, 20 μL, mean of 4
[7] = 10^−5 M wortmannin, 20 μL, mean of 4
[8] = 10^−4 M wortmannin, 10 μL, vs just before administration

## O=c1cc(N2CCOCC2)oc2c(-c3ccccc3)cccc12 [LY294002, 2-(4-morpholinyl)-8-phenyl-4H-1-benzopyran-4-one]
Intraocular pressure [1]; [4]
  Difference of intraocular pressure, 2 hours after administration: −3.2 mmHg
  Difference of intraocular pressure, 4 hours after administration: −2.7 mmHg
  Difference of intraocular pressure, 6 hours after administration: −2.1 mmHg
Intraocular pressure [1]; 10^−3 M LY294002, on 6 hours after administration
  Maximum breadth of the intraocular pressure reduction (maximum difference between vehicle group and test compound group): 3.7 mmHg
Intraocular pressure [1]; 10^−3 M LY294002 group, 20 μL, mean of 6
  Difference of intraocular pressure, 2 hours before administration: 1.9 mmHg
Intraocular pressure [1]; 10^−3 M LY294002 group, mean of 6
  Difference of intraocular pressure, just before administration: 0.0 mmHg

## COC[C@H]1OC(=O)c2coc3c2[C@@]1(C)C1=C(C3=O)[C@@H]2CCC(=O)[C@@]2(C)C[C@H]1OC(C)=O [wortmannin]
Intraocular pressure [2]; instillation of wortmannin (0.04284%), on 4 hours after administration
  Maximum breadth of the intraocular pressure reduction: 2.8 mmHg
Intraocular pressure [2]; instillation, 0.04284% (10^−3 M) wortmannin group, 20 μL, pre-dose value vs just before administration, mean of 5
  Difference of intraocular pressure, 1 hours before administration: 1.1 mmHg
Intraocular pressure [2]; [5]
  Difference of intraocular pressure, 2 hours after administration: −2.6 mmHg
  Difference of intraocular pressure, 4 hours after administration: −3.4 mmHg
  Difference of intraocular pressure, 6 hours after administration: −1.5 mmHg
Intraocular pressure [2]; instillation, 0.04284% wortmannin group, reference time point, mean of 5
  Difference of intraocular pressure, just before administration: 0.0 mmHg
Intraocular pressure [1]; 10^−4 M wortmannin group, 20 μL, mean of 4
  Difference of intraocular pressure, 2 hours before administration: 2.2 mmHg
Intraocular pressure [1]; 10^−4 M wortmannin group, mean of 4
  Difference of intraocular pressure, just before administration: 0.0 mmHg
Intraocular pressure [1]; [6]
  Difference of intraocular pressure, 2 hours after administration: −1.2 mmHg
  Difference of intraocular pressure, 4 hours after administration: −2.8 mmHg
  Difference of intraocular pressure, 6 hours after administration: −3.0 mmHg
Intraocular pressure [1]; 10^−4 M wortmannin
  Maximum breadth of the intraocular pressure reduction: 6.9 mm Hg
Intraocular pressure [1]; 10^−5 M wortmannin group, 20 μL, mean of 4
  Difference of intraocular pressure, 2 hours before administration: 1.2 mmHg
Intraocular pressure [1]; 10^−5 M wortmannin group, mean of 4
  Difference of intraocular pressure, just before administration: 0.0 mmHg
Intraocular pressure [1]; [7]
  Difference of intraocular pressure, 2 hours after administration: −1.5 mmHg
  Difference of intraocular pressure, 4 hours after administration: −1.0 mmHg
  Difference of intraocular pressure, 6 hours after administration: 0.6 mmHg
Intraocular pressure [1]; 10^−5 M wortmannin
  Maximum breadth of the intraocular pressure reduction: 3.3 mmHg
Intraocular pressure [3]; 10^−4 M wortmannin group, 10 μL, pre-dose value vs just before administration
  Difference of intraocular pressure, 1 hours before administration: 0.7 mmHg
Intraocular pressure [3]; 10^−4 M wortmannin group, reference time point
  Difference of intraocular pressure, just before administration: 0.0 mmHg
Intraocular pressure [3]; [8]
  Difference of intraocular pressure, 2 hours after administration: −4.8 mmHg
  Difference of intraocular pressure, 4 hours after administration: −4.3 mmHg
  Difference of intraocular pressure, 6 hours after administration: −2.1 mmHg
Intraocular pressure [3]; wortmannin (10^−4 M), on 2 hours after administration
  Maximum intraocular pressure reduction: 4.5 mmHg
